These results are taken from patent US20200316053A1, “APPLICATION OF NOVEL TYROSINE KINASE INHIBITOR, ANLOTINIB, IN OSTEOSARCOMA AND CHONDROSARCOMA” (CHIA TAI TIANQING PHARMACEUTICAL GROUP CO., LTD., priority 2018, published 2020).

Series [1] concerns osteosarcoma of the right tibia, lung and pelvic metastasis. Kind of series: Clinical case Example 7: patient. The method, then:
A patient underwent the resection of the lesion on Nov. 7, 2016. On Nov. […] PORT implantation was performed under general anesthesia on Nov. 29, 2016, and the postoperative systemic intravenous adjuvant chemotherapy was performed. […] 1, 2016, and methotrexate (2 cycles of chemotherapy) was administered from Dec. 16, 2016 to Jan. 5, 2017. The CT re-examination performed on Jan. […] Ifosfamide (1 cycle of chemotherapy) was administered on Jan. […] The segmental resection of the tumor of the right proximal tibia, the joint replacement and the transposition of gastrocnemius muscle flap were performed under general anesthesia on Feb. 7, 2017. […] Ifosfamide (1 course of chemotherapy) was administered on Mar. […] Methotrexate was administered on Mar. […] 15, 2017. […] 4, 2017, ifosfamide chemotherapy was given on Jun. […] Methotrexate chemotherapy was given on Jul. […] Ifosfamide chemotherapy was given on Aug. […] The CT re-examination performed on Jan. […] A puncture biopsy of the mass of right femur was performed on Oct.
The patient was treated with anlotinib dihydrochloride capsule (12 mg) once a day via oral administration (2 weeks of continuous administration and 1 week of withdrawal being considered as one treatment cycle) from Nov. 16, 2018. […] 26, 2018.

Series [2] concerns osteosarcoma of the right proximal fibula. Kind of series: Clinical case Example 8: patient. The class given is in vivo. Conditions: prior chemotherapy, 1 cycle. The method, then:
A patient experienced a pain on the outer side of the right lower leg with no obvious predisposing cause for 6 months. The pain was persistent and unrelated to movements such as walking, and could not be alleviated after rest. The patient was neither diagnosed nor treated, and the pain was gradually aggravated and occurred at night. […] The patient went for consultation on Dec. 1, 2017, and an incision biopsy of the tumor of the limb was performed on December 5. […] On Apr.
Methotrexate chemotherapy was given for 1 day on Dec. 12, 2017, Feb. 7, 2018, May 4, 2018 and Jul. 6, 2018, respectively. IFO chemotherapy (1 cycle) was given during the following time periods: from Dec. 16, 2017 to […], from Mar. 2, 2018 to Mar. 7, 2018 (the therapeutic effect was evaluated as SD), from Apr. 18, 2018 to Apr. 22, 2018 (platelet reduction (Grade IV)), from Jun. 14, 2018 to Jun. 18, 2018 (the therapeutic effect was evaluated as SD), from Aug. 30, 2018 to Sep. 3, 2018 (the therapeutic effect was evaluated as PD). Cisplatin and amrubicin chemotherapy (1 cycle) was respectively given during the following time periods: from Jan. 17, 2018 to Jan. 20, 2018, from May 24, 2018 to May 27, 2018, and from Jul. 20, 2018 to Jul. 23, 2018 (the therapeutic effect was evaluated as SD). […]

Series [3] concerns osteosarcoma cell lines 143B, U2OS, MG63 and SJSA. Kind of series: Detection of cell cycle by flow cytometer. The following applies: 0-4 μM, 24 h, PI staining. The class given is cell-based, Human. On the procedure:
1.2.4 Detection of cell cycle by flow cytometer: 143B cells, U2OS cells, MG63 cells and SJSA cells were added to the liquid culture media containing different amount-of-substance concentrations of Anlotinib (0 μM, 1 μM, 2 μM, and 4 μM) for cultivation. The cells were collected after 24 h, centrifuged at 1000 r/min for 1 min, rinsed with PBS, and fixed with 70% ethanol. The PI staining solution of cell cycle analysis kit was added, the mixture was incubated in the dark at room temperature for 15 min, and the detection was carried out by using a flow cytometer. Images were analyzed by using ModFit software. The experiment was repeated 3 times.

The test system is the same in series [4]. Kind of series: Anti-proliferation effect on osteosarcoma cell lines (statement for all four lines). The class given is cell-based, Human. The following applies: 0, 1, 2 or 4 μM for 24 or 48 hours; time- and concentration-dependent. The method, then: 1.2.2 Detection of cell proliferation by cck-8: 143B cells, U2OS cells, MG63 cells and SJSA cells in logarithmic growth phase were collected, rinsed with PBS, counted, and dispensed into separate tubes. The cells were seeded into a 96-well plate (3000 cells/well) and cultured for 24 h to allow for cell attachment. Anlotinib with different amount-of-substance concentrations (0 μM, 1 μM, 2 μM, 4 μM, 8 μM, 16 μM, 32 μM, and 64 μM) were then added, the mixture was incubated for 24 h, and then the detection was carried out. 100 μL of cck-8 reagent diluted 10-fold with DMEM culture medium was added into each well and the resulting mixture was incubated at 37° C. for 45 minutes. The absorbance value of the resultant in each well at 450 nm was detected by using a microplate reader.
In order to evaluate the anti-proliferation effects of Anlotinib on osteosarcoma cell lines 143B, U2OS, MG63 and SJSA, the osteosarcoma cell lines were treated with Anlotinib with a concentration of 0 μM, 1 μM, 2 μM or 4 μM for 24 hours or 48 hours.

The test system is the same in series [5]. Kind of series: Transwell cell migration and invasion. The following applies: 1 μM, 24 hours. It counts as cell-based, Human. The method, then: 1.2.6 Experimental analysis of Transwell cell migration and invasion: Cells were seeded at the upper end of the Transwell chamber (5×10^4 cells/well). 143B cells, U2OS cells, MG63 cells and SJSA cells were treated with 1 μM Anlotinib. A culture medium containing 2% serum was added to the upper end of the Transwell chamber (4 hours of pretreatment with 10% matrigel was required in the invasion experiment), and a culture medium containing 10% serum was added to the lower end. After 24 hours, the cells were fixed with 4% paraformaldehyde, stained with crystal violet, and photographed under microscope.

For series [6] the test system is unchanged. Kind of series: Detection of cell apoptosis by flow cytometer (Annexin-V-FITC/PI), with or without cisplatin. It counts as cell-based, Human. Conditions: 2 μM Anlotinib with 10 μM cisplatin (DDP), 24 h. On the procedure: 1.2.5 Detection of cell apoptosis by flow cytometer: 143B cells, U2OS cells, MG63 cells and SJSA cells were added to the liquid culture media containing 2 μM Anlotinib (with or without 10 μM cisplatin (DDP)) for cultivation. The cells were collected after 24 h, centrifuged at 1000 r/min for 1 min, and rinsed with PBS. Afterwards, an Annexin-V-FITC/PI Cell Apoptosis Detection Kit was used to detect the apoptosis of cells. The cells were added to 100 μL of 1×Binding buffer and resuspended, 5 μL of AnnexinV-FITC and 2.5 μL of PI staining reagent were added, and the mixture was shaken and mixed evenly in the dark. The resultant was reacted at room temperature for 15 min, 300 μL of 1×Binding buffer was then added, and the resulting mixture was mixed evenly and detected by a flow cytometer. The experiment was repeated 3 times.

The test system of another series is 143B cells. Kind of series: Detection of cell proliferation by cck-8. Conditions: Homo sapiens. It counts as cell-based. On the procedure:
(§1) 1.2.1 Cell culture: Osteosarcoma cell lines 143B, […], MG63 and SJSA were cultured in DMEM complete culture medium (containing fetal bovine serum with a volume fraction of 10%, 0.1 g/L streptomycin, and 100 U/mL penicillin), and was incubated in a thermostatic incubator containing 5% CO2 (volume fraction) at 37° C. When about 85% cell confluence was reached, the cells were detached by using a mixed cell detachment solution containing 0.02% EDTA and 0.25% trypsin, and then the cells were collected, centrifuged at 1000 r/min for 3 min, and subcultured.
(§2) 1.2.2 Detection of cell proliferation by cck-8: 143B cells, U2OS cells, MG63 cells and SJSA cells in logarithmic growth phase were collected, rinsed with PBS, counted, and dispensed into separate tubes. The cells were seeded into a 96-well plate (3000 cells/well) and cultured for 24 h to allow for cell attachment. […] 100 μL of cck-8 reagent diluted 10-fold with DMEM culture medium was added into each well and the resulting mixture was incubated at 37° C. for 45 minutes. The absorbance value of the resultant in each well at 450 nm was detected by using a microplate reader.

A further series has as its system SJSA cells. Kind of series: Detection of cell proliferation by cck-8. The class given is cell-based. The following applies: Homo sapiens. The method, then: as §1, §2
For another series, the system named is MG63 cells. Kind of series: Detection of cell proliferation by cck-8. It counts as cell-based. The following applies: Homo sapiens, MG-63. On the procedure:
as §1, §2

The next series relates to U2OS cells. Kind of series: Detection of cell proliferation by cck-8. The following applies: Homo sapiens. It counts as cell-based. The method, then: as §1, §2
Series [7] relates to osteosarcoma (chondroblastic type) of the right proximal humerus, bilateral lung metastasis. Kind of series: Clinical case Example 6: patient. The class given is in vivo, human. The following applies: prior high-dose chemotherapy, 6 courses, Aug-Dec 2016. The method, then: A patient underwent the surgical removal of the osteosarcoma lesion in the right proximal humerus and the humeral head prosthesis replacement on Apr. 27, 2013. […] Doxorubicin and ifosfamide were administered after the surgery. […] Bone marrow support therapy was given during the intermission of chemotherapy until the end of chemotherapy in August 2013. […] 1. […] 2. There were enlarged lymph nodes in the right axilla with slight increase in metabolism. The patient was treated by being administered with CIK cells via infusion after the completion of the chemotherapy. At the end of 2015, the patient experienced pain in the upper part of the left humerus, no obvious mass was seen, and the patient suffered from the recurrent pain. […] 1. There was no sign of tumor recurrence in the right humerus after the surgery of the osteosarcoma of the right humerus and the comprehensive treatment, and there was a stripe-shaped hypermetabolic lesion in the upper part of the left humerus. 2. There was no sign of lymph node metastasis in the bilateral armpits. 3. […] On Jun. 7, 2016 and Jul. 1, 2016, the patient underwent 2 courses of doxorubicin and ifosfamide chemotherapy and the process went well. […] Microwave inactivation of the tumor of the left proximal humerus and the bone graft internal fixation was performed on Jul. 22, 2016. […]

Read-outs that look alike come from different tables or passages of the source.

Take `O=P1(NCCCl)OCCCN1CCCl` (centres unmarked) [Ifosfamide, ifosfamide]: in [1] (prior chemotherapy, 1 cycle, Jan. 19, 2017), the tolerability of chemotherapy entry is “no obvious gastrointestinal reaction and bone marrow suppression”. For the same compound, the leucocytopenia grade result is listed as “Grade IV” in series [1] (prior chemotherapy, Aug. 16, 2017); “Grade IV” in series [1] (prior chemotherapy, Jun. 19, 2017 (after doxorubicin and cisplatin Jun. 4, 2017)); “Grade II” in series [1] (prior chemotherapy, Mar. 10, 2017); “Grade IV” in [1] (prior chemotherapy, May 3, 2017). Also, the platelet reduction grade entry in [2] (Apr. 18, 2018 to Apr. 22, 2018) was “Grade IV”. The therapeutic effect entry in series [2] (Aug. 30, 2018 to Sep. 3, 2018) is given as “PD (progressive disease, specifically means that the sum of the diameters of the tumor target lesions increases by 20% or more from the baseline level)”.

With `COc1cc2c(Oc3ccc4[nH]c(C)cc4c3F)ccnc2cc1OCC1(N)CC1` [Anlotinib, 1-[[[4-(4-fluoro-2-methyl-1H-indol-5-yl)oxy-6-methoxyquinolin-7-yl]oxy]methyl]cyclopropylamine], in series [3], the cell cycle arrest result is “G2/M cycle arrest occurred in cells”. In addition, in series [3], the “cells in G1 phase” value was “decrease of cells in G1 phase”. Also, the “effect on the proliferation of the osteosarcoma cell lines” value in series [4] is recorded as “significant inhibitory effect”. Also, the “migration of osteosarcoma cell lines” value in series [5] is “greatly inhibited”. In addition, the “invasion of osteosarcoma cell lines” value in [5] (matrigel) was “greatly inhibited”. Besides, in [6], the “apoptosis of osteosarcoma cell lines caused by cisplatin” value is on record as “significantly enhancing”. Also, the IC50 with 143B cells (24 h, read-out: IC50 (24 h)) amounted to 20.8 µM; in the series on 143B cells (48 h, read-out: IC50 (48 h)) it was 7.95 µM; in the series with SJSA cells (24 h, read-out: IC50 (24 h)), 25.7 µM; in the series with SJSA cells (48 h, read-out: IC50 (48 h)), 10.2 µM; in the series with MG63 cells (MG63, 24 h, read-out: IC50 (24 h)), 30.1 µM; in the series on MG63 cells (MG63, 48 h, read-out: IC50 (48 h)) it was 14.8 µM. Also, the IC50 in the series with U2OS cells (24 h, read-out: IC50 (24 h)) came out at 41.3 µM; in the series with U2OS cells (48 h, read-out: IC50 (48 h)), 25.9 µM.

On to `CN(Cc1cnc2nc(N)nc(N)c2n1)c1ccc(C(=O)N[C@@H](CCC(=O)O)C(=O)O)cc1` [Methotrexate, methotrexate], for which the “bone marrow suppression grade” value in series [7] is reported as “Grade I to II”; in series [1] (human, in vivo), “Grade II”.
